Results as given in patent US20080206761A1, “Ex Vivo Gene Expression in Whole Blood as a Model of Assessment of Individual Variation to Dietary Supplements” (priority 2005, published 2008).

What was measured:
IL-2 mRNA [1] = assay: PHA-induced IL-2 mRNA expression in heparinized whole blood ex vivo; type: cell-based, human; conditions: for ΔΔCt (mean ± standard deviation, n = 3), IL-2 mRNA: supplement 30 min, concentrations per footnote
Procedure: (§1) In this embodiment, phytohemagglutinin-induced gene expression of interleukin-2 (IL-2), interleukin-4 (IL-4), and tumor necrosis factor-α (TNF-α) were quantitated in the following manner. Fifty μL of heparinized whole blood was incubated with various dietary supplements for a period of 30 minutes. The following supplements were employed: vitamins A, C, and D, epigallocatechin gallate (from green tea), genistein (from soy), and curcumin (from the spice turmeric). Vitamin A is known to stimulate the immune system. […] Vitamin D appears to have protective effects against certain cancers. Epigallocatechin gallate is a powerful antioxidant, appears to reduce the multidrug resistance found in cancer cells, and preferentially induces apoptosis in neoplastic cells. Genistein has been found in some studies to have anticarcinogenic activity; possible mechanisms of action include upregulation of apoptosis, inhibition of angiogenesis, inhibition of DNA topoisomerase II and inhibition of protein tyrosine kinases. Curcumin has proapoptotic effects in neoplastic cells and interferes with the activity of the transcription factor NF-κB, which is often highly overexpressed in such cells.
(§2) After incubation with the dietary supplement, 100 μg/mL phytohemagglutinin (PHA) was added and incubation was continued for an additional 2 hours at 37° C. The concentration of each dietary supplement (see Table I, note) was slightly higher than reported blood levels. Then mRNA was purified, cDNA was synthesized, and the levels of IL-2, IL-4, and TNF-α were quantitated by TaqMan real time polymerase chain reaction (PCR) (see Holland, et al., “Detection of specific polymerase chain reaction product by utilizing the 5′ to 3′ exonuclease activity of Thermus aquaticus DNA polymerase,” Proc Natl Acad Sci USA 1991; 88: 7276-80), as described below.
(§3) The mRNA and cDNA were prepared from the whole blood that was exposed to the dietary components, as well as the whole blood which remained unexposed. In brief, home-made 96-well filterplates were placed over collection plates, and 150 μl 5 mM Tris, pH 7.4, was applied. Following centrifugation at 120×g for 1 min at 4° C., 50 μl of blood samples were applied to each well and immediately centrifuged at 120×g for 2 min at 4° C., followed by washing of each well with 300 μl PBS once with centrifugation at 2000×g for 5 min at 4° C. Then, 60 μl stock lysis buffer, containing for example 0.5% N-Lauroylsarcosine, 4×SSC, 10 mM Tris HCl, pH 7.4, 1 mM EDTA, 0.1% IGEPAL CA-630, and 1.791 M guanidine thiocyanate, supplemented with 1% 2-mercaptoethanol (Bio Rad, Hercules, Calif., USA), 0.5 mg/ml proteinase K (Pierce, Rockford, Ill., USA), 0.1 mg/ml salmon sperm DNA (5 Prime Eppendorf/Brinkmann, Westbury, N.Y., USA), 0.1 mg/ml E. coli tRNA (Sigma), a cocktail of 10 mM each of the specific reverse primers shown in Table 2, and standard RNA34 oligonucleotides, were applied to the filterplates, followed by incubation at 37° C. for 10 min. The filterplates were then placed over oligo(dT)-immobilized microplates (GenePlate, RNAture), and centrifuged at 2000×g for 5 min at 4° C. Following overnight storage at 4° C., the microplates were washed with 100 μl plain lysis buffer 3 times, followed by 150 μl of wash buffer (0.5 M NaCl, 10 mM Tris, pH 7.4, 1 mM EDTA) 3 times at 4° C. The cDNA was directly synthesized in each well by adding 30 μl of buffer containing 1×RT-buffer, 1.25 mM each of dNTP, 4 units rRNasin, and 80 units of MMLV reverse transcriptase (Promega) (without primers), and incubation at 37° C. for 2 hours. The specific primer-primed cDNA existed in solution, and oligo(dT)-primed cDNA stayed immobilized in the microplate. […]

IL-4 mRNA [2] = assay: PHA-induced IL-4 mRNA expression in heparinized whole blood ex vivo; type: cell-based, human; conditions: for ΔΔCt (mean ± standard deviation, n = 3), IL-4 mRNA: supplement 30 min, then 100 μg/mL PHA 2 h, concentrations per footnote
Procedure: as §1, §2, §3

TNF-α mRNA [3] = assay: PHA-induced TNF-α mRNA expression in heparinized whole blood ex vivo; type: cell-based, human; conditions: for ΔΔCt (mean ± standard deviation, n = 3), TNFα mRNA: supplement 30 min, then 100 μg/mL PHA 2 h, concentrations per footnote
Procedure: as §1, §2, §3

[4] = tested on: CD32A mRNA (IgG Fc receptor); assay: CD32A mRNA level in leukocytes after exposure of whole blood to dietary components (no stimulating agent); type: cell-based, human; conditions: one individual; 3 hours at 37° C.; PBS control
Procedure: In brief, home-made 96-well filterplates were placed over collection plates, and 150 μl 5 mM Tris, pH 7.4, was applied. Following centrifugation at 120×g for 1 min at 4° C., 50 μl of blood samples were applied to each well and immediately centrifuged at 120×g for 2 min at 4° C., followed by washing of each well with 300 μl PBS once with centrifugation at 2000×g for 5 min at 4° C. […] The filterplates were then placed over oligo(dT)-immobilized microplates (GenePlate, RNAture), and centrifuged at 2000×g for 5 min at 4° C. Following overnight storage at 4° C., the microplates were washed with 100 μl plain lysis buffer 3 times, followed by 150 μl of wash buffer (0.5 M NaCl, 10 mM Tris, pH 7.4, 1 mM EDTA) 3 times at 4° C. […] The specific primer-primed cDNA existed in solution, and oligo(dT)-primed cDNA stayed immobilized in the microplate. […] Each gene was amplified in separate wells. The Ct was determined by analytical software (SDS, ABI).

[5] = at 8 hours after a single soy meal; cited from earlier work
TNFSF3 mRNA = TNFSF3 mRNA in whole blood after dietary component and heat-aggregated IgG stimulation; type: cell-based, human; conditions: case 1, FIG. 5; pre-incubation 30 minutes, HAG 2 hours; quercetin 100 nmol/L
Procedure: The mRNA and cDNA were prepared from the whole blood that was exposed to the dietary components, as well as the whole blood which remained unexposed. In brief, home-made 96-well filterplates were placed over collection plates, and 150 μl 5 mM Tris, pH 7.4, was applied. Following centrifugation at 120×g for 1 min at 4° C., 50 μl of blood samples were applied to each well and immediately centrifuged at 120×g for 2 min at 4° C., followed by washing of each well with 300 μl PBS once with centrifugation at 2000×g for 5 min at 4° C. […] The Ct was determined by analytical software (SDS, ABI).
In this embodiment, heparinized whole blood of two individuals was pre-incubated with various dietary supplements at 37° C. for 30 minutes (at the same blood concentrations as in Embodiment 2), then stimulated with 1.2 μL of heat-aggregated IgG. […] The level of TNFSF3 and TNFSF15 mRNA was then assessed using the method described in Embodiment 1, with the exception that SYBR Green PCR was used to quantitate the mRNA. […]

TNF-α mRNA [6] = assay: PHA-induced TNF-α mRNA expression in heparinized whole blood ex vivo; type: cell-based, human
IL-4 mRNA [7] = assay: PHA-induced IL-4 mRNA expression in heparinized whole blood ex vivo; type: cell-based, human
IL-2 mRNA [8] = assay: PHA-induced IL-2 mRNA expression in heparinized whole blood ex vivo; type: cell-based, human
[9] = summary over 7 subjects of Table I
[10] = PHA alone, 2 hours at 37° C., FIG. 1A

## O=c1c(-c2ccc(O)cc2)coc2cc(O)cc(O)c12 [Gen., genistein]
IL-2 mRNA [1]; Subject 1, then 100 μg/mL PHA 2 h 37° C., negative = increased expression
  ΔΔCt (mean ± standard deviation, n = 3), IL-2 mRNA: −0.41 ± 0.53
IL-2 mRNA [1]; Subject 2, then 100 μg/mL PHA 2 h
  ΔΔCt (mean ± standard deviation, n = 3), IL-2 mRNA: 0.90 ± 0.44
IL-2 mRNA [1]; Subject 3, then 100 μg/mL PHA 2 h
  ΔΔCt (mean ± standard deviation, n = 3), IL-2 mRNA: 0.11 ± 0.23
IL-2 mRNA [1]; Subject 4, then 100 μg/mL PHA 2 h
  ΔΔCt (mean ± standard deviation, n = 3), IL-2 mRNA: 0.08 ± 0.04
IL-2 mRNA [1]; Subject 5, then 100 μg/mL PHA 2 h
  ΔΔCt (mean ± standard deviation, n = 3), IL-2 mRNA: −0.02 ± 1.03
IL-2 mRNA [1]; Subject 6, then 100 μg/mL PHA 2 h
  ΔΔCt (mean ± standard deviation, n = 3), IL-2 mRNA: 0.00 ± 0.27
IL-2 mRNA [1]; Subject 7, then 100 μg/mL PHA 2 h
  ΔΔCt (mean ± standard deviation, n = 3), IL-2 mRNA: −0.28 ± 0.20
IL-2 mRNA [1]; [9]
  effect on PHA-induced IL-2 expression, in words: mainly inactive
IL-4 mRNA [2]; Subject 1
  ΔΔCt (mean ± standard deviation, n = 3), IL-4 mRNA: −1.83 ± 0.20
IL-4 mRNA [2]; Subject 2
  ΔΔCt (mean ± standard deviation, n = 3), IL-4 mRNA: −1.56 ± 0.46
IL-4 mRNA [2]; Subject 3
  ΔΔCt (mean ± standard deviation, n = 3), IL-4 mRNA: −0.82 ± 0.34
IL-4 mRNA [2]; Subject 4
  ΔΔCt (mean ± standard deviation, n = 3), IL-4 mRNA: −1.04 ± 0.16
IL-4 mRNA [2]; Subject 5
  ΔΔCt (mean ± standard deviation, n = 3), IL-4 mRNA: −0.45 ± 0.34
IL-4 mRNA [2]; Subject 6
  ΔΔCt (mean ± standard deviation, n = 3), IL-4 mRNA: −0.34 ± 0.02
IL-4 mRNA [2]; Subject 7
  ΔΔCt (mean ± standard deviation, n = 3), IL-4 mRNA: 0.28 ± 0.25
IL-4 mRNA [2]; [9]
  effect on PHA-induced IL-4 expression, in words: mainly inactive
TNF-α mRNA [3]; Subject 1
  ΔΔCt (mean ± standard deviation, n = 3), TNFα mRNA: −1.14 ± 0.32
TNF-α mRNA [3]; Subject 2
  ΔΔCt (mean ± standard deviation, n = 3), TNFα mRNA: −1.01 ± 0.04
TNF-α mRNA [3]; Subject 3
  ΔΔCt (mean ± standard deviation, n = 3), TNFα mRNA: 0.33 ± 0.62
TNF-α mRNA [3]; Subject 4
  ΔΔCt (mean ± standard deviation, n = 3), TNFα mRNA: −0.16 ± 0.12
TNF-α mRNA [3]; Subject 5
  ΔΔCt (mean ± standard deviation, n = 3), TNFα mRNA: −0.32 ± 0.54
TNF-α mRNA [3]; Subject 6
  ΔΔCt (mean ± standard deviation, n = 3), TNFα mRNA: −0.02 ± 0.20
TNF-α mRNA [3]; Subject 7
  ΔΔCt (mean ± standard deviation, n = 3), TNFα mRNA: −0.17 ± 0.18
TNF-α mRNA [3]; [9]
  effect on PHA-induced TNF-α expression, in words: mainly inactive
[4]
  conclusion from CD32A mRNA levels (FIG. 2), in words: would be suitable for use in this individual in a diet optimized for anti-cancer activity
[5]
  plasma concentration: 4 mmol/L

## O=c1c(O)c(-c2ccc(O)c(O)c2)oc2cc(O)cc(O)c12 [quercetin]
TNFSF3 mRNA
  HAG-induced TNFSF3 expression, in words: HAG induced TNFSF3 expression in blood exposed to quercetin

## phytohemagglutinin [PHA]
TNF-α mRNA [6]; 100 μg/mL PHA, FIG. 1B
  time for TNF-α mRNA induction to reach a plateau: 30 to 60 min
TNF-α mRNA [6]; [10]
  EC50 of induction of TNF-α mRNA expression: 10 to 20 µg/mL
IL-4 mRNA [7]; 100 μg/mL PHA, FIG. 1B
  time for IL-4 mRNA induction to reach a plateau: 30 to 60 min
IL-4 mRNA [7]; [10]
  EC50 of induction of IL-4 mRNA expression: 10 to 20 µg/mL
IL-2 mRNA [8]; 100 μg/mL PHA, FIG. 1B
  time for IL-2 mRNA induction to reach a plateau: 30 to 60 min
IL-2 mRNA [8]; [10]
  EC50 of induction of IL-2 mRNA expression: 10 to 20 µg/mL
